Experimental data taken from publication PMC3808999 (Molecular cell, 2013).

Legend:
[1] = molecular target: human STING C-terminal domain (CTD, residues 139–379) (Homo sapiens, UniProt Q86WV6, H232R); experiment: Isothermal titration calorimetry; conditions: direct ITC titration
WT human STING = WT human STING (Homo sapiens, UniProt Q86WV6, H232R); experiment: IFNβ induction; conditions: L929 cells expressing WT human STING; IFN-β RNA by q-RT-PCR
R232A human STING = R232A human STING (Homo sapiens, UniProt Q86WV6, H232A); experiment: IFNβ induction; conditions: L929 cells expressing R232A human STING; IFN-β RNA by q-RT-PCR
R232A human STING, sequence (Q86WV6 whole entry H232A): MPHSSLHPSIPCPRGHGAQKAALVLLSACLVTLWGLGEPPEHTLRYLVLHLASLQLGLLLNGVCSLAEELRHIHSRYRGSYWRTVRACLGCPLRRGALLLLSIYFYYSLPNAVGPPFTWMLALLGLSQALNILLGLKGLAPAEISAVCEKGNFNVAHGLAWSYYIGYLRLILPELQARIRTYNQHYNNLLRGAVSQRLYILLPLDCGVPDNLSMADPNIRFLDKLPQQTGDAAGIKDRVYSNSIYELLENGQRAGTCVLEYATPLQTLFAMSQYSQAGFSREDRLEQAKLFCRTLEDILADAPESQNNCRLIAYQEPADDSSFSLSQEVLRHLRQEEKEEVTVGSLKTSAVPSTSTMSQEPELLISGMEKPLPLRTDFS

R232H human STING = R232H human STING (Homo sapiens, UniProt Q86WV6); experiment: IFNβ induction; conditions: L929 cells expressing R232H human STING; IFN-β RNA by q-RT-PCR
R232H human STING, sequence (Q86WV6 whole entry, stated change not applied): as the sequence (Q86WV6 whole entry H232A) above, with A232H counted along it

WT human STING, sequence (Q86WV6 whole entry H232R): as the sequence (Q86WV6 whole entry H232A) above, with A232R counted along it
human STING C-terminal domain (CTD, residues 139–379), sequence (Q86WV6 139-379 H232R): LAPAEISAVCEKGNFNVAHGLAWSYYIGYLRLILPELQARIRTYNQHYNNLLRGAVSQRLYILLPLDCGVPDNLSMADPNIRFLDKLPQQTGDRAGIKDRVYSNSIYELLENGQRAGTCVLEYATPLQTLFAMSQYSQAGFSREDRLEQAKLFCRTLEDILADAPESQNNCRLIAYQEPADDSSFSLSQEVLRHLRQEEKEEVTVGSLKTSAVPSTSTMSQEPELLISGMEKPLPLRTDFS

Compound	heat character of binding to STING [1]	IFNβ induction (WT human STING)	IFNβ induction (R232A human STING)	IFNβ induction (R232H human STING)
Nc1nc2c(ncn2[C@@H]2O[C@@H]3COP(=O)(O)O[C@H]4[C@@H](O)[C@H](n5cnc6c(=O)[nH]c(N)nc65)O[C@@H]4COP(=O)(O)O[C@H]3[C@H]2O)c(=O)[nH]1 [c-di-GMP, cyclic di-GMP]	exothermic	–	–	–
poly[I:C]	–	stimulated IFNβ expression	stimulated IFNβ expression	stimulated IFNβ expression
